Source: US20210161174A1, “FEED ADDITIVE FOR FARMED ANIMALS” (ADISSEO FRANCE S.A.S., priority 2018, published 2021)
Marks after values point to notes of the source that are not given here.

Tested on: wooden breast myopathies
Experiment: Example 2: wooden breast assessment by expert panel at 42 d
Assay type: in vivo, Broiler Chicken (Cobb 500)
Details: for wooden breast means per treatment (WB): score scale WB0-WB4
Method: Study Animals: • Animal: Broiler Chicken • Breed/Strain: Cobb 500 • Description: Day-of-hatch male chicks, sexed at hatchery • Sex: Male
Processing: On day […] (12) birds are selected from each pen for processing (at 12 reps/trt: 576 birds in total; 144 birds/trt)
Wooden breast assessment was determined by an expert panel according to 5 levels: WB0, WB1, WB2, WB3, WB4 from no WB to severe WB.
Dietary Treatments • Control (NC, negative control without PQQ) • 0.2 ppm PQQ • 0.5 ppm PQQ • 1 ppm PQQ
Wooden Breast Scores were: WB 0—normal breast; WB 1—mild hardening in the upper; WB 2—moderate hardening in the upper and/or lower part of the fillet; WB 3—severe hardening; WB 4—severe hardening with hemorrhagic lesions, increased volume, and presence of yellow fluid.
Higher is the score per WB 3 and 4 categories, greater is the default. Conversely, for categories WB0 to WB2, higher is the score, better is the quality.
Wooden breast scores were: WB0—normal breast; WB1—mild hardening in the upper; WB 2—moderate hardening in the upper and/or lower part of the fillet; WB 3—severe hardening; WB 4—severe hardening with hemorrhagic lesions, increased volume, and presence of yellow fluid.

## O=C(O)c1cc(C(=O)O)c2c(n1)C(=O)C(=O)c1cc(C(=O)O)[nH]c1-2 [PQQ, pyrroloquinoline quinone]
0.2 ppm PQQ (T2)
  wooden breast myopathies occurrence, WB0: 0.83%
  wooden breast myopathies occurrence, WB1: 2.78%
  wooden breast myopathies occurrence, WB2: 20.00^a %
  wooden breast myopathies occurrence, WB3: 49.16^a %
  wooden breast myopathies occurrence, WB4: 27.22%
  wooden breast myopathies scores, WB0: 0.08
  wooden breast myopathies scores, WB1: 0.17
  wooden breast myopathies scores, WB2: 1.17^b
  wooden breast myopathies scores, WB3: 2.92
  wooden breast myopathies scores, WB4: 1.67
  wooden breast means per treatment (WB): 2.92^a
0.5 ppm PQQ (T3)
  wooden breast myopathies occurrence, WB0: 0.00%
  wooden breast myopathies occurrence, WB1: 15.29%
  wooden breast myopathies occurrence, WB2: 41.67^ab %
  wooden breast myopathies occurrence, WB3: 30.56^ab %
  wooden breast myopathies occurrence, WB4: 12.50%
  wooden breast myopathies scores, WB0: 0.00
  wooden breast myopathies scores, WB1: 0.92
  wooden breast myopathies scores, WB2: 2.50^ab
  wooden breast myopathies scores, WB3: 1.83
  wooden breast myopathies scores, WB4: 0.75
  wooden breast means per treatment (WB): 2.36^b
1 ppm PQQ
  change in proportion of WB2 breast fillets with supplementation: +50%
  change in proportion of WB4 breast fillets with supplementation: −60%
1.0 ppm PQQ (T4)
  wooden breast myopathies occurrence, WB0: 0.00%
  wooden breast myopathies occurrence, WB1: 18.05%
  wooden breast myopathies occurrence, WB2: 46.94^a %
  wooden breast myopathies occurrence, WB3: 25.00^b %
  wooden breast myopathies occurrence, WB4: 10.00%
  wooden breast myopathies scores, WB0: 0.00
  wooden breast myopathies scores, WB1: 1.08
  wooden breast myopathies scores, WB2: 2.75^a
  wooden breast myopathies scores, WB3: 1.50
  wooden breast myopathies scores, WB4: 0.58
  wooden breast means per treatment (WB): 2.26^b
Supplementation with PQQ
  proportions of bad quality fillets (WB3 and WB4): lower proportions
  proportions of good quality breast fillets (WB0 to WB2): higher proportions
